Source: patent US12227520B2 (priority 2019, dated 2025)
Like-named read-outs stand apart in the source and are kept apart here.

Key:
[1] = Cytotoxicity assay in MT-4 cells; type: cell-based, human; conditions: human, uninfected MT-4 cells, 5 days incubation; read-out: CC50
Summary of the method: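 For cytotoxicity, uninfected MT-4 cells were incubated with compounds 5 days at 37 °C, with 10 μM puromycin marking base cytotoxicity. Parallel plates used HIV-1 IIIB-infected (1:250 stock dilution) or mock cells with 5 μM AZT and no-drug controls. Read-out: CellTiter-Glo chemiluminescence.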

pLai RLuc reporter virus = test: microbe, parasite or virus in culture; type: cell-based, HIV; conditions: Human immunodeficiency virus 1, 72 h
Procedure: To quantify the amount of protein binding to human serum, compounds were serially diluted (1:3) in DMSO and acoustically transferred onto 384-well assay plates via a Labcyte ECHO robot. Each plate contained up to 8 test compounds, including negative and positive controls, (DMSO, 5 μM AZT respectively). Assay plates were prepared in duplicate, and tested in either CCM (cell culture media) or HS/CCM (human serum/cell culture media). MT-4 cells were first pre-infected with pLai RLuc reporter virus for 2 h at 37° C., then further diluted in either CCM (RPMI media, 10% FBS, 1% P/S) or HS/CCM (RPMI media, 10% FBS, 50% HS, 1% P/S), and subsequently added to each plate using a Biotek Micro Flow dispenser. After a 72-h incubation in a humidified and temperature controlled incubator (37° C.), Renilla Glo (Promega) was added to all assay plates and chemiluminescence read using an Envision plate-reader. […] To determine the amount of protein binding, EC50 fold shifts (or EC50 shifts) were calculated by dividing EC50 (HS/CCM)/EC50 (CCM).

HIV-1 (IIIB) = test: Antiviral assay in MT-4 cells (HIV MT-4 antiviral assay); type: cell-based; conditions: Human immunodeficiency virus 1, IIIB, MT4, 120 h, HIV-1 (IIIB) in MT-4 cells, 5 days incubation; read-out: EC50
Summary of the method: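 Read-out is CellTiter-Glo chemiluminescence after 5-day culture at 37° C, giving protection of MT-4 cells from HIV-1 IIIB cytopathicity. Compounds tested in 1:3 dilution series in complete RPMI; controls were no drug, mock infection and 5 μM AZT.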

[2] = read-out: Antiviral Serum Shift RLuc 50% HS, HS/CCM (RPMI media, 10% FBS, 50% HS, 1% P/S), 72-h incubation
[3] = read-out: Antiviral Serum Shift RLuc CCM, CCM (RPMI media, 10% FBS, 1% P/S), 72-h incubation

| SMILES | CC50 at 5 days [1] [nM] | EC50 (pLai RLuc reporter virus; [2]) [nM] | EC50 (pLai RLuc reporter virus; [3]) [nM] | EC50 (HIV-1 (IIIB)) [nM] |
| --- | --- | --- | --- | --- |
| O=C(NCc1c(F)cc(F)cc1F)c1cn2c(c(O)c1=O)C(=O)N1C[C@@H]2CSc2ccccc21 [Example 94, (6R)-1-hydroxy-2,14-dioxo-N-(2,4,6-trifluorobenzyl)-2,6,7,14-tetrahydro-6,13-methanobenzo[b]pyrido[2,1-f][1,4,7]thiadiazonine-3-carboxamide] | 13700 | 1.73 | 0.411 | 1.15 |
| C[C@@H]1CC[C@H](C)N2C[C@H]1n1cc(C(=O)NCc3ccc(F)cc3F)c(=O)c(O)c1C2=O [Example 175, (3S,6R,7S)—N-(2,4-difluorobenzyl)-12-hydroxy-3,6-dimethyl-1,11-dioxo-1,4,5,6,7,11-hexahydro-3H-2,7-methanopyrido[1,2-a][1,4]diazonine-10-carboxamide] | 7740 | 20.9 | 0.412 | 1.29 |
| C[C@H]1C[C@H]2CN(C(=O)c3c(O)c(=O)c(C(=O)NCc4c(F)cc(F)cc4F)cn32)[C@@H](C)C1 [Example 142-2, (3S,5R,7S)-12-hydroxy-3,5-dimethyl-1,11-dioxo-N-(2,4,6-trifluorobenzyl)-1,4,5,6,7,11-hexahydro-3H-2,7-methanopyrido[1,2-a][1,4]diazonine-10-carboxamide] | 13600 | 2.81 | 0.363 | 1.87 |
| O=C(NCc1ccc(F)c(Cl)c1F)c1cn2c(c(O)c1=O)C(=O)N1CCCC(F)(F)[C@H]2C1 (single isomer, unassigned) [Example 117-1] | 13300 | 7.17 | 0.33 | 1.93 |
| O=C(NCc1ccc(F)cc1F)c1cn2c(c(O)c1=O)C(=O)N1CCc3cc(Cl)ccc3[C@@H]2C1 [Example 140-2, (13R)-10-chloro-N-(2,4-difluorobenzyl)-4-hydroxy-3,5-dioxo-3,5,8,13-tetrahydro-7H-6,13-methanobenzo[g]pyrido[1,2-a][1,4]diazonine-2-carboxamide] | 5230 | 22.4 | 0.347 | 1.92 |
| C[C@@H]1C=C[C@H](C)N2C[C@H]1n1cc(C(=O)NCc3c(F)cc(F)cc3F)c(=O)c(O)c1C2=O [Example 176, (3S,6R,7S)-12-hydroxy-3,6-dimethyl-1,11-dioxo-N-(2,4,6-trifluorobenzyl)-1,6,7,11-tetrahydro-3H-2,7-methanopyrido[1,2-a][1,4]diazonine-10-carboxamide] | 7770 | 16.7 | 0.263 | 0.829 |
| O=C(NCc1ccc(F)cc1F)c1cn2c(c(O)c1=O)C(=O)N1CCCOC[C@@H]2C1 [Example 1-1, (S)-N-(2,4-difluorobenzyl)-13-hydroxy-1,12-dioxo-1,4,5,7,8,12-hexahydro-3H-2,8-methanopyrido[1,2-d][1,4,7]oxadiazecine-11-carboxamide] | > 50000 | 4.85 | 3.64 | 16.5 |
| O=C(NCc1ccc(F)c(Cl)c1F)c1cn2c(c(O)c1=O)C(=O)N1C[C@@H]2CCc2ccc(F)cc21 [Example 90-2, (12S)—N-(3-chloro-2,4-difluorobenzyl)-3-fluoro-7-hydroxy-6,8-dioxo-6,8,13,14-tetrahydro-12H-5,12-methanobenzo[e]pyrido[1,2-a][1,4]diazonine-9-carboxamide] | > 20800 | 1.22 | 0.361 | 2.42 |
| O=C(NCc1ccc(F)cc1F)c1cn2c(c(O)c1=O)C(=O)N1Cc3cc(F)ccc3C[C@H]2C1 [Example 146, (6S)—N-(2,4-difluorobenzyl)-10-fluoro-1-hydroxy-2,14-dioxo-2,7,12,14-tetrahydro-6H-6,13-methanobenzo[f]pyrido[1,2-a][1,4]diazonine-3-carboxamide] | > 50000 | 1.12 | 0.227 | 1.76 |
| C[C@]12CC(F)CCN(C1)C(=O)c1c(O)c(=O)c(C(=O)NCc3c(F)cc(F)cc3F)cn12 (single isomer, unassigned) [Example 112] | 8030 | 27.8 | 0.182 | 0.712 |
